# Assay results published in patent publication US20250100997A1, “PYRIDAZINYL AMINO DERIVATIVES AS ALK5 INHIBITORS” (CHIESI FARMACEUTICI S.P.A., priority 2022, published 2025).
# Target: T1, human ALK5 (recombinant TGF β1 N-term GST-tagged, 80-end) (Homo sapiens, UniProt P36897)
# T1 construct: human ALK5 (recombinant TGF β1 N-term GST-tagged, 80-end); GST (N); purchased
# T1 sequence (P36897 80-503 limits assumed): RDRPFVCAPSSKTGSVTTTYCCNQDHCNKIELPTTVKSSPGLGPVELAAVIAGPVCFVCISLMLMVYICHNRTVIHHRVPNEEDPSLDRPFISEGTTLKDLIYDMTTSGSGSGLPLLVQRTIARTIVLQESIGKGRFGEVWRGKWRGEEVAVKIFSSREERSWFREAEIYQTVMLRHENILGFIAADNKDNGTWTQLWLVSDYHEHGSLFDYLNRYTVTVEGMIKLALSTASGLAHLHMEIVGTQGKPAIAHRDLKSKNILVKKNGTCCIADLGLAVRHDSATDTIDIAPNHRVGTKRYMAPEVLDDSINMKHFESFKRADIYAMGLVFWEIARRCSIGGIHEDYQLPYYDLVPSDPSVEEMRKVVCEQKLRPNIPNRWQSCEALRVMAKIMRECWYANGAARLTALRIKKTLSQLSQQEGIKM
# Experiment: ADP-GLO kinase assay, biochemical ALK5 assay
# Conditions: pIC50 converted to pKi using the Cheng-Prusoff equation, ATP at Km, or high ATP (30-fold Km) for very potent compounds, 25° C.
# Protocol: The enzymatic activity of compounds of the present invention was monitored measuring the formation of ADP using the ADP-GLO Kinases assay. Following the incubation of the purified enzyme, a substrate and ATP, the produced ADP was converted into ATP, which in turn was converted into light by Ultra-Glo Luciferase. The luminescent signal positively correlated with ADP amount and kinase activity. Briefly, the kinase reaction was performed by incubating 2.6 nM of the purified, commercially available human ALK5 (recombinant TGF β1 N-term GST-tagged, 80-end), a final concentration of TGFβ1 peptide 94.5 μM (Promega, T36-58) and ultra-pure ATP (Promega V915B). The ATP concentration was set at the Km value (concentration of substrate which permits the enzyme to achieve half maximal velocity (Vmax)) of ALK5 (0.5 μM). Compound and ALK5 kinase were mixed and incubated for 15 mins. Reactions were initiated by addition of ATP at a final concentration in the assay of […]. After an incubation of 120 min, the reaction was stopped, and ADP production detected with ADP-Glo kit according to manufacturer's indications. To overcome the assay wall limit for very potent compounds the assay protocol was changed by using a high ATP concentration (30-fold Km). Compounds and ALK5 kinase were mixed for 15 min and the reaction initiated by addition of TGFβ1 peptide and ATP at a final concentration in the assay of 15 μM. After an incubation of 60 min, the kinase reaction was stopped, and ADP production detected with ADP-Glo kit according to manufacturer's indications.
# All reaction and incubation steps were performed at 25° C. and the assays were performed in 384-well format and validated using a selection of reference compounds tested in 11-point concentration-response curve.
# Results were expressed as pIC50 (negative logarithm of IC50) and subsequently converted to pKi (negative logarithm of […]) using the Cheng-Prusoff equation. The higher the value of pKi, the greater the inhibition of ALK5 activity.
row,Structure (SMILES),Ki [pM]
1,"CN1CCN(CCC(=O)Nc2cc(Nc3cc(-c4cc(Cl)ccc4F)nnc3C3=CCN(C(=O)OC(C)(C)C)CC3)ccn2)CC1 [Example 1, tert-butyl 4-[6-(5-chloro-2-fluorophenyl)-4-({2-[3-(4-methylpiperazin-1-yl)propanamido]pyridin-4-yl}amino)pyridazin-3-yl]-1,2,3,6-tetrahydropyridine-1-carboxylate]",1000 to 3160
2,"CN1CCN(CCC(=O)Nc2cc(Nc3cc(-c4cc(Cl)ccc4F)nnc3C3CCN(C(=O)OC(C)(C)C)CC3)ccn2)CC1 [Example 2, tert-butyl 4-[6-(5-chloro-2-fluorophenyl)-4-({2-[3-(4-methylpiperazin-1-yl)propanamido]pyridin-4-yl}amino)pyridazin-3-yl]piperidine-1-carboxylate]",1000 to 3160
3,"CN1CCN(CCC(=O)Nc2cc(Nc3cc(-c4cc(Cl)ccc4F)nnc3C3=CCNCC3)ccn2)CC1 [Example 3, N-(4-{[6-(5-chloro-2-fluorophenyl)-3-(1,2,3,6-tetrahydropyridin-4-yl)pyridazin-4-yl]amino}pyridin-2-yl)-3-(4-methylpiperazin-1-yl)propanamide]",1000 to 3160
4,"COC(=O)N1CC=C(c2nnc(-c3cc(Cl)ccc3F)cc2Nc2ccnc(NC(=O)CCN3CCN(C)CC3)c2)CC1 [Example 5, methyl 4-[6-(5-chloro-2-fluorophenyl)-4-({2-[3-(4-methylpiperazin-1-yl)propanamido]pyridin-4-yl}amino)pyridazin-3-yl]-1,2,3,6-tetrahydropyridine-1-carboxylate]",1000 to 3160
5,"CN1CCC(c2nnc(-c3cc(Cl)ccc3F)cc2Nc2ccnc(NC(=O)CCN3CCN(C)CC3)c2)CC1 [Example 8, N-(4-{[6-(5-chloro-2-fluorophenyl)-3-(1-methylpiperidin-4-yl)pyridazin-4-yl]amino}pyridin-2-yl)-3-(4-methylpiperazin-1-yl)propanamide]",1000 to 3160
6,"CN1CCN(CCC(=O)Nc2cc(Nc3cc(-c4cc(Cl)ccc4F)nnc3C3CN(C(=O)OC(C)(C)C)C3)ccn2)CC1 [Example 9, tert-butyl 3-[6-(5-chloro-2-fluorophenyl)-4-({2-[3-(4-methylpiperazin-1-yl)propanamido]pyridin-4-yl}amino)pyridazin-3-yl]azetidine-1-carboxylate]",126 to 794
7,"CN1CCN(CCC(=O)Nc2cc(Nc3cc(-c4cc(Cl)ccc4F)nnc3C3=CCCNC3)ccn2)CC1 [Example 12, N-(4-{[6-(5-chloro-2-fluorophenyl)-3-(1,2,5,6-tetrahydropyridin-3-yl)pyridazin-4-yl]amino}pyridin-2-yl)-3-(4-methylpiperazin-1-yl)propanamide]",1000 to 3160
8,"CN1CCN(CCC(=O)Nc2cc(Nc3cc(-c4cc(Cl)ccc4F)nnc3C3CCN3)ccn2)CC1 (stereo not shown) [Example 16, N-(4-{[3-(azetidin-2-yl)-6-(5-chloro-2-fluorophenyl)pyridazin-4-yl]amino}pyridin-2-yl)-3-(4-methylpiperazin-1-yl)propanamide]",126 to 794
9,"CN1CCN(CCC(=O)Nc2cc(Nc3cc(-c4cc(Cl)ccc4F)nnc3C3CCC(=O)N3C)ccn2)CC1 (stereo not shown) [Example 17, N-(4-((6-(5-chloro-2-fluorophenyl)-3-(1-methyl-5-oxopyrrolidin-2-yl)pyridazin-4-yl)amino)pyridin-2-yl)-3-(4-methylpiperazin-1-yl)propanamide]",1000 to 3160
10,"CN1CCN(CCC(=O)Nc2cc(Nc3cc(-c4cc(Cl)ccc4F)nnc3C3COC(C)(C)N3C(=O)OC(C)(C)C)ccn2)CC1 (stereo not shown) [Example 20, tert-butyl 4-(6-(5-chloro-2-fluorophenyl)-4-((2-(3-(4-methylpiperazin-1-yl)propanamido)pyridin-4-yl)amino)pyridazin-3-yl)-2,2-dimethyloxazolidine-3-carboxylate]",126 to 794

# The remaining lines, values ahead:
row,Ki [pM],Structure (SMILES)
1,126 to 794,"CN1CCN(CCC(=O)Nc2cc(Nc3cc(-c4cc(Cl)ccc4F)nnc3C3CCNCC3)ccn2)CC1 [Example 4, N-(4-{[6-(5-chloro-2-fluorophenyl)-3-(piperidin-4-yl)pyridazin-4-yl]amino}pyridin-2-yl)-3-(4-methylpiperazin-1-yl)propanamide]"
2,1000 to 3160,"CN1CC=C(c2nnc(-c3cc(Cl)ccc3F)cc2Nc2ccnc(NC(=O)CCN3CCN(C)CC3)c2)CC1 [Example 6, N-(4-{[6-(5-chloro-2-fluorophenyl)-3-(1-methyl-1,2,3,6-tetrahydropyridin-4-yl)pyridazin-4-yl]amino}pyridin-2-yl)-3-(4-methylpiperazin-1-yl)propanamide]"
3,126 to 794,"COC(=O)N1CCC(c2nnc(-c3cc(Cl)ccc3F)cc2Nc2ccnc(NC(=O)CCN3CCN(C)CC3)c2)CC1 [Example 7, methyl 4-[6-(5-chloro-2-fluorophenyl)-4-({2-[3-(4-methylpiperazin-1-yl)propanamido]pyridin-4-yl}amino)pyridazin-3-yl]piperidine-1-carboxylate]"
4,126 to 794,"CN1CCN(CCC(=O)Nc2cc(Nc3cc(-c4cc(Cl)ccc4F)nnc3C3CNC3)ccn2)CC1 [Example 10, N-(4-{[3-(azetidin-3-yl)-6-(5-chloro-2-fluorophenyl)pyridazin-4-yl]amino}pyridin-2-yl)-3-(4-methylpiperazin-1-yl)propanamide]"
5,126 to 794,"CN1CCN(CCC(=O)Nc2cc(Nc3cc(-c4cc(Cl)ccc4F)nnc3C3=CCCN(C(=O)OC(C)(C)C)C3)ccn2)CC1 [Example 11, tert-butyl 5-[6-(5-chloro-2-fluorophenyl)-4-({2-[3-(4-methylpiperazin-1-yl)propanamido]pyridin-4-yl}amino)pyridazin-3-yl]-1,2,3,6-tetrahydropyridine-1-carboxylate]"
6,1000 to 3160,"CN1CCN(CCC(=O)Nc2cc(Nc3cc(-c4cc(Cl)ccc4F)nnc3C3=CCCN(C)C3)ccn2)CC1 [Example 13, N-(4-{[6-(5-chloro-2-fluorophenyl)-3-(1-methyl-1,2,5,6-tetrahydropyridin-3-yl)pyridazin-4-yl]amino}pyridin-2-yl)-3-(4-methylpiperazin-1-yl)propanamide]"
7,1000 to 3160,"CC(=O)N1CCC=C(c2nnc(-c3cc(Cl)ccc3F)cc2Nc2ccnc(NC(=O)CCN3CCN(C)CC3)c2)C1 [Example 14, N-(4-{[3-(1-acetyl-1,2,5,6-tetrahydropyridin-3-yl)-6-(5-chloro-2-fluorophenyl)pyridazin-4-yl]amino}pyridin-2-yl)-3-(4-methylpiperazin-1-yl)propanamide]"
8,126 to 794,"CN1CCN(CCC(=O)Nc2cc(Nc3cc(-c4cc(Cl)ccc4F)nnc3C3CCN3C(=O)OC(C)(C)C)ccn2)CC1 (stereo not shown) [Example 15, tert-butyl 2-[6-(5-chloro-2-fluorophenyl)-4-({2-[3-(4-methylpiperazin-1-yl)propanamido]pyridin-4-yl}amino)pyridazin-3-yl]azetidine-1-carboxylate]"
9,126 to 794,"CN1CCN(CCC(=O)Nc2cc(Nc3cc(-c4cc(Cl)ccc4F)nnc3C3CCO3)ccn2)CC1 (stereo not shown) [Example 18, N-(4-{[6-(5-chloro-2-fluorophenyl)-3-(oxetan-2-yl)pyridazin-4-yl]amino}pyridin-2-yl)-3-(4-methylpiperazin-1-yl)propanamide]"
10,126 to 794,"CN1CCN(CCC(=O)Nc2cc(Nc3cc(-c4cc(Cl)ccc4F)nnc3C3CCC(=O)S3)ccn2)CC1 (stereo not shown) [Example 19, N-(4-((6-(5-chloro-2-fluorophenyl)-3-(5-oxotetrahydrothiophen-2-yl)pyridazin-4-yl)amino)pyridin-2-yl)-3-(4-methylpiperazin-1-yl)propanamide]"
11,126 to 794,"CN1CCN(CCC(=O)Nc2cc(Nc3cc(-c4cc(Cl)ccc4F)nnc3C3CCOC3)ccn2)CC1 (stereo not shown) [Example 21, N-(4-((6-(5-chloro-2-fluorophenyl)-3-(tetrahydrofuran-3-yl)pyridazin-4-yl)amino)pyridin-2-yl)-3-(4-methylpiperazin-1-yl)propanamide]"
12,126 to 794,"CN1CCN(CCC(=O)Nc2cc(Nc3cc(-c4cc(Cl)ccc4F)nnc3C3CCCS3)ccn2)CC1 (stereo not shown) [Example 22, N-(4-((6-(5-chloro-2-fluorophenyl)-3-(tetrahydrothiophen-2-yl)pyridazin-4-yl)amino)pyridin-2-yl)-3-(4-methylpiperazin-1-yl)propanamide]"
